Measured values: ChEMBL document CHEMBL1154409, “Contribution of the CmeABC efflux pump to macrolide and tetracycline resistance in Campylobacter jejuni” (2007)
≈ marks a conversion by molar mass, not a printed value. Peptide text beside a SMILES is read from it. * marks the point of attachment. βNA = c1ccc2cc(N*)ccc2c1

Assays:
Campylobacter jejuni [1] = experiment: Antibacterial activity against Campylobacter jejuni 001B-40 cmeB::kanamycin-resistant mutant by agar dilution method; type: functional
Campylobacter jejuni [2] = experiment: Antibacterial activity against Campylobacter jejuni UA709 carrying A2074C mutation in 23S rRNA by agar dilution method; type: functional
Campylobacter jejuni [3] = experiment: Antibacterial activity against Campylobacter jejuni 001B-22 carrying A2075G mutation in 23S rRNA by agar dilution method; type: functional
Campylobacter jejuni [4] = experiment: Antibacterial activity against Campylobacter jejuni UA709 cmeB::kanamycin-resistant mutant by agar dilution method; type: functional
Campylobacter jejuni [5] = experiment: Antibacterial activity against Campylobacter jejuni 001B-40 carrying A2075G mutation in 23S rRNA by agar dilution method; type: functional
Campylobacter jejuni [6] = experiment: Ratio of MIC for Campylobacter jejuni 001B-22 carrying A2075G mutation in 23S rRNA to MIC for Campylobacter jejuni 001B-22 cmeB::kanamycin-resistant mutant; type: functional
Campylobacter jejuni [7] = experiment: Antibacterial activity against Campylobacter jejuni 001B-22 cmeB::kanamycin-resistant mutant by agar dilution method; type: functional
Escherichia coli [8] = experiment: Antibacterial activity against Escherichia coli EW1b containing pDOB47; type: functional
Campylobacter jejuni [9] = experiment: Antibacterial activity against Campylobacter jejuni 25-19 cmeB:: Kanamycin-resistant mutant by agar dilution method; type: functional
Campylobacter jejuni [10] = experiment: Antibacterial activity against Campylobacter jejuni 15-21 by […]; type: functional
Campylobacter jejuni [11] = experiment: Antibacterial activity against Campylobacter jejuni 25-45 cmeB:: Kanamycin-resistant mutant by agar dilution method; type: functional
Campylobacter jejuni [12] = experiment: Antibacterial activity against Campylobacter jejuni 81-176 carrying tet(O)+ gene by agar dilution method; type: functional
Campylobacter jejuni [13] = experiment: Antibacterial activity against Campylobacter jejuni 23-51 assessed as inhibition of CmeABC efflux pump by agar dilution method; type: functional
Escherichia coli [14] = experiment: Antibacterial activity against wild type Escherichia coli DH5alpha by agar dilution assay; type: functional
Campylobacter jejuni [15] = experiment: Antibacterial activity against Campylobacter jejuni 81-176 cmeB: kanamycin-resistant mutant carrying tet(O)+ gene; type: functional
Campylobacter jejuni [16] = experiment: Antibacterial activity against Campylobacter jejuni 25-19 by agar dilution method; type: functional
Campylobacter jejuni [17] = experiment: Antibacterial activity against Campylobacter jejuni 23-51 cme:: Kanamycin-resistant mutant assessed by agar dilution method; type: functional
Campylobacter jejuni [18] = experiment: Antibacterial activity against Campylobacter jejuni 25-45 by agar dilution method; type: functional
Campylobacter jejuni [19] = experiment: Antibacterial activity against Campylobacter jejuni 15-21 cmeB:: Kanamycin-resistant mutant by agar dilution method; type: functional
[20] = molecular target: T1, CmeA (Campylobacter jejuni) (UniProt Q8RTE5); experiment: Inactivation of CmeABC efflux pump in Campylobacter jejuni 25-19 assessed as change in clarithromycin MIC by agar dilution method
T1 sequence (whole entry): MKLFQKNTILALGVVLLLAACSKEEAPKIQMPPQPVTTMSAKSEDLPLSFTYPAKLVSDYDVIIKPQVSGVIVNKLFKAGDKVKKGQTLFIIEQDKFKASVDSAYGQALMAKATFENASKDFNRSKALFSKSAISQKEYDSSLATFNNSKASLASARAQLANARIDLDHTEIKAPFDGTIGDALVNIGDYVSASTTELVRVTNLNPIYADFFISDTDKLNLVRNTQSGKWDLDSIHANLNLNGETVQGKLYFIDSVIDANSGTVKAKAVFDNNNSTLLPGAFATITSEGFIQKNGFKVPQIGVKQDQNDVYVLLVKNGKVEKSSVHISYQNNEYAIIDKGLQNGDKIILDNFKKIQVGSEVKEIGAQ

Campylobacter jejuni [21] = experiment: Inactivation of CmeABC efflux pump in Campylobacter jejuni 25-19 assessed as change in erythromycin MIC by agar dilution method
Campylobacter jejuni [22] = experiment: Ratio of MIC for Campylobacter jejuni 001B-40 carrying A2075G mutation in 23S rRNA to MIC for Campylobacter jejuni 001B-40 cmeB::kanamycin-resistant mutant; type: functional

CC[C@H]1OC(=O)[C@H](C)[C@@H](O[C@H]2C[C@@](C)(OC)[C@@H](O)[C@H](C)O2)[C@H](C)[C@@H](O[C@@H]2O[C@H](C)C[C@H](N(C)C)[C@H]2O)[C@](C)(O)C[C@@H](C)C(=O)[C@H](C)[C@@H](O)[C@]1(C)O [ERYTHROMYCIN]
MIC (Campylobacter jejuni [1]): 8 µg/mL (≈ 10.9 µM)
MIC (Campylobacter jejuni [2]): 1020 µg/mL (≈ 1400 µM)
MIC (Campylobacter jejuni [3]): 256 µg/mL (≈ 349 µM)
MIC (Campylobacter jejuni [4]): 1020 µg/mL (≈ 1400 µM)
MIC (Campylobacter jejuni [5]): > 1020 µg/mL
fold change (FC) (Campylobacter jejuni [6]): 64
MIC (Campylobacter jejuni [7]): 4 µg/mL (≈ 5.45 µM)

CN(C)[C@@H]1C(O)=C(C(N)=O)C(=O)[C@@]2(O)C(O)=C3C(=O)c4c(O)cccc4[C@@](C)(O)[C@H]3C[C@@H]12 [TETRACYCLINE]
MIC (Escherichia coli [8]): 16 µg/mL (≈ 36 µM)
MIC (Campylobacter jejuni [9]): 4 µg/mL (≈ 9 µM)
MIC (Campylobacter jejuni [10]): 128 µg/mL (≈ 288 µM)
MIC (Campylobacter jejuni [11]): 8 µg/mL (≈ 18 µM)
MIC (Campylobacter jejuni [12]): 32 µg/mL (≈ 72 µM)
MIC (Campylobacter jejuni [13]): 512 µg/mL (≈ 1150 µM)
MIC (Escherichia coli [14]): 64 µg/mL (≈ 144 µM)
MIC (Campylobacter jejuni [15]): 2 µg/mL (≈ 4.5 µM)
MIC (Campylobacter jejuni [16]): 64 µg/mL (≈ 144 µM)
MIC (Campylobacter jejuni [17]): 8 µg/mL (≈ 18 µM)
MIC (Campylobacter jejuni [18]): 256 µg/mL (≈ 576 µM)
MIC (Campylobacter jejuni [19]): 4 µg/mL (≈ 9 µM)

N=C(N)NCCC[C@H](NC(=O)[C@@H](N)Cc1ccccc1)C(=O)Nc1ccc2ccccc2c1 (H-Phe-Arg-βNA)
fold change (FC) [20]: 2
fold change (FC) (Campylobacter jejuni [21]): 3

CC[C@H]1OC(=O)[C@H](C)[C@@H](O[C@H]2C[C@@](C)(OC)[C@@H](O)[C@H](C)O2)[C@H](C)[C@@H](O[C@@H]2O[C@H](C)C[C@H](N(C)C)[C@H]2O)[C@](C)(OC)C[C@@H](C)C(=O)[C@H](C)[C@@H](O)[C@]1(C)O [CLARITHROMYCIN]
MIC (Campylobacter jejuni [1]): 8 µg/mL (≈ 10.7 µM)
MIC (Campylobacter jejuni [2]): 128 µg/mL (≈ 171 µM)
fold change (FC) (Campylobacter jejuni [22]): >32
MIC (Campylobacter jejuni [3]): 64 µg/mL (≈ 85.6 µM)
MIC (Campylobacter jejuni [4]): 128 µg/mL (≈ 171 µM)
MIC (Campylobacter jejuni [5]): 265 µg/mL (≈ 354 µM)
fold change (FC) (Campylobacter jejuni [21]): 2
fold change (FC) (Campylobacter jejuni [6]): 16
MIC (Campylobacter jejuni [7]): 4 µg/mL (≈ 5.35 µM)
